Test results reported in patent US6288037A (BASF Aktiengesellschaft, priority 1996, dated 2001).
Where a SMILES comes first, the peptide text is derived from it.

Target: T1, N-His Ich-1 (Homo sapiens, UniProt P42575)
T1 construct: contains Ich-1 amino acid residues 167-435, with an initiator and polyhistidine tag fused to the amino terminus; initiator (Met) + polyhistidine tag (N); made in house
T1 sequence (P42575 184-333): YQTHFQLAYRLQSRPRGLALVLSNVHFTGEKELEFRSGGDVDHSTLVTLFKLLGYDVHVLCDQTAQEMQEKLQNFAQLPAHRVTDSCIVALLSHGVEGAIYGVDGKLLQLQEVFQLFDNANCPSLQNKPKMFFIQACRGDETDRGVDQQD
T1 sequence (P42575 334-452): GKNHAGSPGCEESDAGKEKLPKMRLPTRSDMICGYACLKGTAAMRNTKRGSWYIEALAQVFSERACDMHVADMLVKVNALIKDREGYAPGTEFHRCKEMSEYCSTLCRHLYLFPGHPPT
Test: In vitro proteolysis assay: cleavage of candidate peptide substrates by N-His Ich-1 (reverse phase HPLC)
Assay type: biochemical
Details: for % Cleavage after 60 minute reaction: 10 μM peptide, 30° C., pH 6.2, 60 minute reaction; for cleavage by N-His Ich-1 (in words): Tables 1-3
Source text: To identify peptide substrates for Ich-1, candidate peptides were used in in vitro proteolysis assays with recombinant Ich-1 protein. Human Ich-1 enzyme (the nucleotide and amino acid sequences for which are disclosed in Wang, L., et al. (1994) Cell 78:739-750) was expressed recombinantly with an N-terminal polyhistidine tag by methods described in Kamens, J., et al. (1995) J. Biol. Chem. 270:15250-15256. The resulting enzyme, called N-His Ich-1, contains Ich-1 amino acid residues 167-435, with an initiator and polyhistidine tag fused to the amino terminus. The recombinant N-His Ich-1 protein was purified by metal chelating column chromatography as described in Porath, J. (1992) Protein Expression and Purification 3:263-281.
Candidate peptide substrates were synthesized by standard solid phase methods and were purified to ≥95% by reverse-phase chromatography. Peptide identities were confirmed by mass spectrometry. Each peptide was acetylated at the amino-terminus and amidated at the carboxy-terminus. The amino acid sequence of each peptide included at least one Trp or Tyr residue. Stock solutions of each peptide were prepared in dimethylsulfoxide (DMSO) at approximately 10 mM. The precise concentration of each stock solution was determined in duplicate as described in Edelhoch, H. (1967) Biochemistry 6:1948-1954. Dilutions of each stock solution to 500 μM were prepared and stored at -20° C. prior to use in enzyme assays.
To determine the substrate specificity of Ich-1, Vmax /Km values for various candidate peptide substrates were compared using experimental procedures modeled after those of Howard, A., et al. (1991) J. Immunol. 147:2964-2969. Enzyme reaction mixtures (810 μL) were prepared containing: 100 mM sodium acetate (pH 6.2), 20% (v/v) glycerol, 5 mM dithiothreitol, 0.5 mM EDTA and approximately 15 μg N-His Ich-1. These mixtures were capped and preincubated for 30 minutes at 30° C. Candidate peptide substrates were added from 500 μM DMSO stocks to give final concentrations of 10 μM peptide and 2% (v/v) DMSO. The reaction mixtures were then capped and incubation was continued at 30° C. At 10 minute intervals for 60 minutes beginning at t=0, aliquots of 110 μL were removed from each reaction mixture and added to vials containing 11 μL of a solution of 3 M HCl in water to stop the enzyme reaction. Samples were stored at room temperature prior to analysis.
Samples were analyzed by reverse phase HPLC using a 250×4.6 mm C18 reverse phase column (Vydak, Hesperia, Calif.) and a linear gradient of MeCN--H2 O with 0.1% (v/v) TFA. The area under the substrate peaks (arbitrary units) was plotted vs. time of reaction for each substrate and fit into an equation of the form: [formula]
wherein S0 is substrate peak area at time=0, St is substrate peak area at time=t, e is a constant approximately equal to 2.718, k is the first order rate constant formally equal to Vmax /Km and t is time. […] Alternatively, results can be expressed as percent substrate cleavage after a fixed time of reaction.

Row | SMILES | % Cleavage after 60 minute reaction [%] | cleavage by N-His Ich-1 (in words)
1 | CC(=O)N[C@@H](CCCNC(=N)N)C(=O)NCC(=O)N[C@H](C(=O)N[C@@H](CC(=O)O)C(=O)N[C@@H](CCC(N)=O)C(=O)N[C@@H](CCC(N)=O)C(=O)N[C@@H](CC(=O)O)C(=O)NCC(=O)N[C@@H](CCCCN)C(=O)N[C@@H](CC(N)=O)C(=O)N[C@@H](Cc1c[nH]cn1)C(=O)N[C@@H](Cc1c[nH]c2ccccc12)C(N)=O)C(C)C [Peptide 1, acetyl-RGVDQQDGKNHW-amide] (Ac-RGVDQQDGKNHW-NH2) | 80 | cleaved at a rate significantly greater than the other tested peptides
2 | CC(=O)N[C@@H](CC(N)=O)C(=O)N[C@@H](CCC(=O)O)C(=O)N[C@@H](C)C(=O)N[C@@H](Cc1ccc(O)cc1)C(=O)N[C@H](C(=O)N[C@@H](Cc1c[nH]cn1)C(=O)N[C@@H](CC(=O)O)C(=O)N[C@@H](C)C(=O)N1CCC[C@H]1C(=O)N[C@H](C(=O)N[C@@H](CCCNC(=N)N)C(=O)N[C@@H](CO)C(=O)N[C@@H](CC(C)C)C(=O)N[C@@H](Cc1ccc(O)cc1)C(N)=O)C(C)C)C(C)C [Peptide 2, acetyl-NEAYVHDAPVRSLY-amide] (Ac-NEAYVHDAPVRSLY-NH2) | 0 | 
3 | CC(=O)N[C@@H](Cc1c[nH]cn1)C(=O)N[C@@H](CO)C(=O)N[C@@H](CC(C)C)C(=O)N[C@@H](CC(=O)O)C(=O)N[C@@H](CC(N)=O)C(=O)N[C@@H](CCCCN)C(=O)N[C@@H](CC(=O)O)C(=O)NCC(=O)N1CCC[C@H]1C(=O)N[C@H](C(=O)N[C@@H](Cc1c[nH]c2ccccc12)C(N)=O)C(C)C [Peptide 4, acetyl-HSLDNKDGPVW-amide] (Ac-HSLDNKDGPVW-NH2) | 0 | 
4 | CSCC[C@H](NC(=O)[C@H](CCC(N)=O)NC(=O)[C@H](CC(=O)O)NC(=O)[C@H](CO)NC(=O)[C@H](Cc1ccc(O)cc1)NC(C)=O)C(=O)N[C@@H](CC(=O)O)C(=O)NCC(=O)N[C@@H](Cc1ccccc1)C(=O)N[C@@H](Cc1c[nH]cn1)C(=O)N[C@@H](CC(=O)O)C(=O)N[C@@H](CO)C(=O)N[C@@H](Cc1c[nH]c2ccccc12)C(N)=O [Peptide 6, acetyl-YSDQMDGFHDSW-amide] (Ac-YSDQMDGFHDSW-NH2) | 0 | 
5 | CC(=O)N[C@@H](CC(=O)O)C(=O)N[C@@H](CC(=O)O)C(=O)N[C@@H](CCC(N)=O)C(=O)N[C@@H](CCC(N)=O)C(=O)N[C@@H](CC(=O)O)C(=O)NCC(=O)N[C@@H](Cc1c[nH]c2ccccc12)C(N)=O [Peptide 21, acetyl-DDQQDGW-amide] (Ac-DDQQDGW-NH2) |  | weak cleavage

Now from value to compound, other results behind:

Row | % Cleavage after 60 minute reaction [%] | SMILES | cleavage by N-His Ich-1 (in words)
6 | 0 | CC(=O)N[C@@H](Cc1c[nH]c2ccccc12)C(=O)NCC(=O)N[C@@H](CC(=O)O)C(=O)N[C@@H](CCC(=O)O)C(=O)N[C@H](C(=O)N[C@@H](CC(=O)O)C(=O)NCC(=O)N[C@H](C(=O)N[C@@H](CC(=O)O)C(=O)N[C@@H](CCC(=O)O)C(=O)N[C@H](C(=O)N[C@@H](Cc1c[nH]c2ccccc12)C(N)=O)C(C)C)C(C)C)C(C)C [Peptide 3, acetyl-WGDEVDGVDEVW-amide] (Ac-WGDEVDGVDEVW-NH2) | 
7 | 1 | CSCC[C@H](NC(=O)[C@H](CC(=O)O)NC(=O)[C@H](CCC(=O)O)NC(=O)CNC(C)=O)C(=O)N[C@@H](CCC(N)=O)C(=O)N[C@@H](CC(=O)O)C(=O)N[C@@H](CC(N)=O)C(=O)N[C@@H](CO)C(=O)NCC(=O)N[C@H](C(=O)N[C@@H](Cc1ccc(O)cc1)C(=O)N[C@@H](Cc1c[nH]c2ccccc12)C(N)=O)[C@@H](C)O [Peptide 5, acetyl-GEDMQDNSGTYW-amide] (Ac-GEDMQDNSGTYW-NH2) | 
8 | 8 | CC[C@H](C)[C@H](NC(=O)CNC(=O)[C@H](CS)NC(C)=O)C(=O)N[C@@H](CCC(=O)O)C(=O)N[C@H](C(=O)N[C@@H](CC(=O)O)C(=O)N[C@@H](CO)C(=O)NCC(=O)N[C@H](C(=O)N[C@@H](CC(=O)O)C(=O)N[C@@H](CC(=O)O)C(=O)N[C@@H](Cc1c[nH]c2ccccc12)C(N)=O)C(C)C)[C@@H](C)O [Peptide 7, acetyl-CGIETDSGVDDW-amide] (Ac-CGIETDSGVDDW-NH2) | 
